Measurements: ChEMBL document CHEMBL1250549, “N-phenyl-N'-[4-(5H-pyrrolo[3,2-d]pyrimidin-4-yloxy)phenyl]ureas as novel inhibitors of VEGFR and FGFR kinases” (Bioorg Med Chem, 2010)
Values after ≈ are worked out from the molar mass of the structure shown.

Tests used:
[1] = target: Vascular endothelial growth factor receptor 2 (Homo sapiens, UniProt P35968); assay: Inhibition of His-tagged human VEGFR2 expressed in Sf9 cells
[2] = target: T1, Fibroblast growth factor receptor 1 (Homo sapiens, UniProt P11362); assay: Inhibition of His-tagged human FGFR1 expressed in Sf9 cells
T1 sequence (P11362 whole entry): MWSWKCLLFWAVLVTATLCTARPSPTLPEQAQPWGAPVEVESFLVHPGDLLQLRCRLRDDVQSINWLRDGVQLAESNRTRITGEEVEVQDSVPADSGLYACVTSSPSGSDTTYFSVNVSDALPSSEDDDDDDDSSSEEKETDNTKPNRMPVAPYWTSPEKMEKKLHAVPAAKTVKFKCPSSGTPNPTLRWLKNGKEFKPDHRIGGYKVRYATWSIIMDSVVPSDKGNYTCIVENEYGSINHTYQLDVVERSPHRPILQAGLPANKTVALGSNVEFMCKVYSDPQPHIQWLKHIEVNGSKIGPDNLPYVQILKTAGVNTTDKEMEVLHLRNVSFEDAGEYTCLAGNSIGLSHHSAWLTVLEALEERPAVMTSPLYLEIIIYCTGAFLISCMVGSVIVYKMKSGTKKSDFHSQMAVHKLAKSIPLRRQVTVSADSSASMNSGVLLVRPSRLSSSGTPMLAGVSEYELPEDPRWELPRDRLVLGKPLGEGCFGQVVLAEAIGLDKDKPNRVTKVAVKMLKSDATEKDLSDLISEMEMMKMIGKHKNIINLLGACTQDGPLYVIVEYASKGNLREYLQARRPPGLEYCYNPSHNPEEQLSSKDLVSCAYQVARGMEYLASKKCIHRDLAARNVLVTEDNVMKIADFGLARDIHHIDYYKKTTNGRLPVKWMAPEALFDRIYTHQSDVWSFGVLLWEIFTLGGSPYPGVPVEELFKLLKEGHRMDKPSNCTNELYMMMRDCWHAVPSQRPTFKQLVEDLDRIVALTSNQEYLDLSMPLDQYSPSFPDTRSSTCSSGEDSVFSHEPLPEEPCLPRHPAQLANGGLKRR

HUVEC [3] = assay: Antiproliferative activity against HUVEC cells assessed as inhibition of FGF-stimulated proliferation after 5 days by WST-8 assay; details: Homo sapiens, 120 h
[4] = Solubility of the compound at pH 6.8; format: physicochemical; details: buffer
[5] = Inhibition of VEGFR
[6] = Inhibition of PDGFR
Angiopoietin-1 receptor = Angiopoietin-1 receptor (Homo sapiens, UniProt Q02763); assay: Inhibition of Tie-2
Angiopoietin-1 receptor, sequence (Q02763 whole entry): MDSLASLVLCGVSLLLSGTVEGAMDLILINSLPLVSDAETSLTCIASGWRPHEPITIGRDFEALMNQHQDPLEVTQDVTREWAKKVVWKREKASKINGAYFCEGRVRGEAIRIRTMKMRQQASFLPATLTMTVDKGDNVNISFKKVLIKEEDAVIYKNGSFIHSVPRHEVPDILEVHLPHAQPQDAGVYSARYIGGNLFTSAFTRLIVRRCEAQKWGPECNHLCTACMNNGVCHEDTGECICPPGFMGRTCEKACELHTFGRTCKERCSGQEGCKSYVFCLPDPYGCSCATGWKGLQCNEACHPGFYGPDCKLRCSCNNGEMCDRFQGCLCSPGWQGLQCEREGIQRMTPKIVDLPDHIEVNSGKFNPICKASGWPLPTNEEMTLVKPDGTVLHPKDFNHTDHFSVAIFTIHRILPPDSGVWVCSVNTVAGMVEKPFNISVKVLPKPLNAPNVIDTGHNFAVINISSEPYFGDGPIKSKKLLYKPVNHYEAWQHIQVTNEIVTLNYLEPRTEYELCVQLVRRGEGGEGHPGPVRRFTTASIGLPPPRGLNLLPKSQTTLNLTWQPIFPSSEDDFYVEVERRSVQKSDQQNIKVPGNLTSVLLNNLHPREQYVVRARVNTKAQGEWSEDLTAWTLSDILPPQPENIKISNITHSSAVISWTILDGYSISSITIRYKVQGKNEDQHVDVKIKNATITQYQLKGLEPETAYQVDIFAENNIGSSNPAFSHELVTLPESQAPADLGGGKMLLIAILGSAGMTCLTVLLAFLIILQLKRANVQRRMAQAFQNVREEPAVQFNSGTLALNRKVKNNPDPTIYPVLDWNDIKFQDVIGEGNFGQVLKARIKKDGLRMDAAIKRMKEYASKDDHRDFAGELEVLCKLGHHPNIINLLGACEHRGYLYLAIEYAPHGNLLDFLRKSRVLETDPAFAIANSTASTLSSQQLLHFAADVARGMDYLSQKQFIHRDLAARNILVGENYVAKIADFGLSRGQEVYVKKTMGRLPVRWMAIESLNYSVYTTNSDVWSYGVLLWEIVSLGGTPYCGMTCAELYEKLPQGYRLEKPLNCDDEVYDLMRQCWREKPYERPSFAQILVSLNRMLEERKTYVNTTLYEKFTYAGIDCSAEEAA

[7] = target: T1, Fibroblast growth factor receptor 1; assay: Inhibition of FGFR1
HUVEC [8] = assay: Antiproliferative activity against HUVEC cells assessed as inhibition of VEGF-stimulated proliferation after 5 days by WST-8 assay; details: Homo sapiens, 120 h

Vascular endothelial growth factor receptor 2, sequence (P35968 whole entry): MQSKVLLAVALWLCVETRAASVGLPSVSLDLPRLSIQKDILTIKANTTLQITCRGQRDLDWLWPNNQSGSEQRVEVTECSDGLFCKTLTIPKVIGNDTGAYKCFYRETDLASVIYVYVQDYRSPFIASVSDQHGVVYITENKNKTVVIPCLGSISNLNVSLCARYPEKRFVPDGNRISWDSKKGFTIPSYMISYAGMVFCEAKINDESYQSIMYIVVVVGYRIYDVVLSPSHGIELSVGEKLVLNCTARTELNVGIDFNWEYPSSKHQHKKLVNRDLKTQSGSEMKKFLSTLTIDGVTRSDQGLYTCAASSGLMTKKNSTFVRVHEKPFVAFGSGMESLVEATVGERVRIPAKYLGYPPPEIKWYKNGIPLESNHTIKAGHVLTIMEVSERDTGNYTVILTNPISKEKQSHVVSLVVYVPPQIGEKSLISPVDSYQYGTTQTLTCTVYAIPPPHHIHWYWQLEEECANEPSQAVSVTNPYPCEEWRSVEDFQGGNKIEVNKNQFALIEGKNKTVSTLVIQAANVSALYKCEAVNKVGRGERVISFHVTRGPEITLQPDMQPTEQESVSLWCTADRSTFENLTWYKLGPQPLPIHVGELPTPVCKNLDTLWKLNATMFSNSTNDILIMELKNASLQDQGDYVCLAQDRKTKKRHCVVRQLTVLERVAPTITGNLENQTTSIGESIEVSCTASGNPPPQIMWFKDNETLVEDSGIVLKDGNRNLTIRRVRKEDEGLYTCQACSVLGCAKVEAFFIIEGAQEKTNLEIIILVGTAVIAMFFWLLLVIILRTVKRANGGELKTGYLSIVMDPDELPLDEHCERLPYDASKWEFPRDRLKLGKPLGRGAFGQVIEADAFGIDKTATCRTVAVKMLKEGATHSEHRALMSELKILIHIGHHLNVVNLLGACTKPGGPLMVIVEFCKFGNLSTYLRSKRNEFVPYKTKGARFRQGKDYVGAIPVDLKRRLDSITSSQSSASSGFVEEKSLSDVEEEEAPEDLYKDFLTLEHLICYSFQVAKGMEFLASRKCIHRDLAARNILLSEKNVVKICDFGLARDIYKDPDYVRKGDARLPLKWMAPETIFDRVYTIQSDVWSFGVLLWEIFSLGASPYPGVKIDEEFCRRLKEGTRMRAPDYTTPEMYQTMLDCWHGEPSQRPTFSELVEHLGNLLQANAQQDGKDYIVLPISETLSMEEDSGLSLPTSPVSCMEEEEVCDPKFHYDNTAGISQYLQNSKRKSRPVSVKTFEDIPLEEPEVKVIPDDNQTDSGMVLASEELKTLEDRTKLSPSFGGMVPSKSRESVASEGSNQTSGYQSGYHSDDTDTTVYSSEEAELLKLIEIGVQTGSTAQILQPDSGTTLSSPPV

| SMILES | IC50 [1] | also measured |
| --- | --- | --- |
| Cn1nc(C(C)(C)C)cc1NC(=O)Nc1ccc(Oc2ncnc3ccn(C)c23)cc1Cl | 19 nM | – |
| COc1cc(NC(=O)Nc2ccc(Oc3ncnc4ccn(C)c34)cc2Cl)cc(C(F)(F)F)c1 | 20 nM | – |
| Cn1ccc2ncnc(Oc3ccc(NC(=O)Nc4ccc(N5CCOCC5)c(C(F)(F)F)c4)c(Cl)c3)c21 | 61 nM | – |
| Cn1ccc2ncnc(Oc3ccc(NC(=O)Nc4cc(CN5CCOCC5)cc(C(F)(F)F)c4)c(Cl)c3)c21 | 23 nM | – |
| Cn1ccc2ncnc(Oc3ccc(NC(=O)Nc4ccncc4)c(Cl)c3)c21 | 650 nM | IC50 [2]: > 10000 nM |
| O=C(Nc1cccc(C(F)(F)F)c1)Nc1ccc(Oc2ncnc3ccn(CCOCCO)c23)cc1Cl | 2.7 nM | – |
| COCc1cc2ncnc(Oc3ccc(NC(=O)Nc4cccc(C(F)(F)F)c4)c(Cl)c3)c2n1C | 14 nM | – |
| Cn1c(C(C)(C)O)cc2ncnc(Oc3ccc(NC(=O)Nc4cccc(C(F)(F)F)c4)c(Cl)c3)c21 | 18 nM | – |
| Cn1ccc2ncnc(Oc3ccc(NC(=O)Nc4ccc(CN5CCOCC5)c(C(F)(F)F)c4)c(Cl)c3)c21 | 19 nM | – |
| CN1CCC(Oc2ccc(NC(=O)Nc3ccc(Oc4ncnc5ccn(C)c45)cc3Cl)cc2C(F)(F)F)CC1 | 12 nM | – |
| Cn1ccc2ncnc(Oc3ccc(NC(=O)Nc4cccc(C(F)(F)F)c4)c(Cl)c3)c21 | – | IC50 (HUVEC [3]): 230 nM; solubility [4]: 0.09 µg/mL (≈ 0.195 µM) |
| O=C(Nc1cccc(C(F)(F)F)c1)Nc1ccc(Oc2ncnc3ccn(CCO)c23)cc1Cl | 4 nM | – |
| Cn1ccc2ncnc(Oc3ccc(NC(=O)Nc4cccc(C(F)(F)F)c4)c(F)c3)c21 | – | IC50 [2]: > 10000 nM; IC50 [5]: < 100 nM; IC50 [6]: < 100 nM; IC50 (Angiopoietin-1 receptor): < 100 nM; IC50 [7]: > 10000 nM |
| CN1CCN(Cc2ccc(NC(=O)Nc3ccc(Oc4ncnc5ccn(C)c45)cc3Cl)cc2C(F)(F)F)CC1 | 9.3 nM | IC50 (HUVEC [8]): 38 nM; IC50 (HUVEC [3]): 20 nM; solubility [4]: 19 µg/mL (≈ 33.1 µM) |
| Cn1ccc2ncnc(Oc3ccc(NC(=O)Nc4ccccn4)c(Cl)c3)c21 | 210 nM | IC50 [2]: > 10000 nM |

Further lines, with some results ahead:

| IC50 [1] | SMILES | also measured |
| --- | --- | --- |
| 9 nM | COCCn1ccc2ncnc(Oc3ccc(NC(=O)Nc4cccc(C(F)(F)F)c4)c(Cl)c3)c21 | – |
| 3.8 nM | Cn1ccc2ncnc(Oc3ccc(NC(=O)Nc4ccnc(C(F)(F)F)c4)c(Cl)c3)c21 | – |
| 11 nM | CN1CCN(Cc2cc(NC(=O)Nc3ccc(Oc4ncnc5ccn(C)c45)cc3Cl)cc(C(F)(F)F)c2)CC1 | – |
| 8.9 nM | Cn1ccc2ncnc(Oc3ccc(NC(=O)Nc4cc(C(C)(C)C)on4)c(Cl)c3)c21 | – |
| 230 nM | Cn1ccc2ncnc(Oc3ccc(NC(=O)Nc4cccnc4)c(Cl)c3)c21 | IC50 [2]: > 10000 nM |
| 4 nM | Cn1ccc2ncnc(Oc3ccc(NC(=O)Nc4cnn(CC(F)(F)F)c4)c(Cl)c3)c21 | – |
| 9.4 nM | COc1ccc(NC(=O)Nc2ccc(Oc3ncnc4ccn(C)c34)cc2Cl)cc1C(F)(F)F | – |
| 2.7 nM | Cn1ccc2ncnc(Oc3ccc(NC(=O)Nc4cc(C(F)(F)F)ccn4)c(Cl)c3)c21 | – |
| 7.6 nM | Cn1ccc2ncnc(Oc3ccc(NC(=O)Nc4cnn(C(C)(C)C)c4)c(Cl)c3)c21 | – |
| 60 nM | Cn1ccc2ncnc(Oc3ccc(NC(=O)Nc4cc(N5CCOCC5)cc(C(F)(F)F)c4)c(Cl)c3)c21 | – |
| 9.7 nM | Cn1c(CO)cc2ncnc(Oc3ccc(NC(=O)Nc4cccc(C(F)(F)F)c4)c(Cl)c3)c21 | – |
| 2.9 nM | Cn1ccc2ncnc(Oc3ccc(NC(=O)Nc4cncc(C(F)(F)F)c4)c(Cl)c3)c21 | – |
